Assay results taken from ChEMBL document CHEMBL1136293, “Synthesis and evaluation of tripeptidyl alpha-ketoamides as human rhinovirus 3C protease inhibitors” (Bioorg Med Chem Lett, 2003).

Assays:
[1] = tested on: HeLa; assay: Antiviral activity against human rhinovirus-16 (HRV-16) in HeLa-cells using cell assay; assay type: functional, cell-based
[2] = biological target: T1, Human rhinovirus A protease (Human rhinovirus sp., UniProt Q4U254); assay: Antiviral activity against human rhinovirus-14 (HRV-14) 3C protease using enzyme assay; assay type: functional, rhinovirus B14
T1 sequence (Q4U254 whole entry): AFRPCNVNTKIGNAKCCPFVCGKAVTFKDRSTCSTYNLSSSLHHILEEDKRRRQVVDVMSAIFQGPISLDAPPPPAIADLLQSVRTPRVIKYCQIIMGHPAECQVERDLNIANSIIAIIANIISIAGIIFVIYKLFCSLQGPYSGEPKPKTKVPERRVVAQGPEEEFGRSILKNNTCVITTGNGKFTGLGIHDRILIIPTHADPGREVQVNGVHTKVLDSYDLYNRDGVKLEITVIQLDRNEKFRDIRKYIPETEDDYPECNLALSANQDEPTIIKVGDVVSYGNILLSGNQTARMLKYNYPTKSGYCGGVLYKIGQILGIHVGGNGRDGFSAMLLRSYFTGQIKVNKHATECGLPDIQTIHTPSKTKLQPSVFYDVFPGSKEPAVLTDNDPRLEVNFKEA

[3] = tested on: HeLa; assay: Cytotoxicity against HeLa cells was determined by using XTT cytotoxicity assay; assay type: functional; conditions: Homo sapiens, read-out: TC50 (the source's name)
[4] = tested on: rhinovirus B14; assay: (§1) Antiviral activity against human rhinovirus-14 (HRV-14) in HeLa-cells using cell assay; assay type: functional, organism-based, human rhinovirus type 14; conditions: Rhinovirus B
[5] = tested on: HeLa; assay: as §1; assay type: functional, cell-based
[6] = biological target: T1, Human rhinovirus A protease; assay: Antiviral activity against human rhinovirus-14 (HRV-14) 3C protease using enzyme assay; inactive; assay type: functional, rhinovirus B14
[7] = tested on: HeLa; assay: Antiviral activity against human rhinovirus-16 (HRV-16) in HeLa-cells using cell assay; inactive; assay type: functional, cell-based

SMILES	EC50 [1] [µM]	Ki [2] [µM]	CC50 [3] [µM]	EC50 [4] [µM]	IC50 [2] [µM]	IC50 [5] [µM]	Ki [6]	EC50 [7]
CCCC(NC(=O)C(Cc1ccccc1)NC(=O)[C@@H](NC(=O)OC(C)C)C(C)C)C(=O)C(=O)N[C@@H](C)c1ccccc1 (some centres not stated)	10.1	0.5	62	1	–	–	–	–
CCC[C@H](NC(=O)[C@H](Cc1ccccc1)NC(=O)[C@@H](NC(=O)OC(C)C)C(C)C)C(=O)C(=O)N[C@@H](C)c1ccccc1	~10	0.17	> 100	0.85	0.17	–	–	–
CCC[C@H](NC(=O)[C@H](Cc1ccccc1)NC(=O)[C@@H](NC(=O)OC(C)C)C(C)C)C(=O)C(=O)N[C@H](C)c1ccccc1	–	6.5	–	11.1	–	–	–	–
CCC[C@H](NC(=O)[C@H](Cc1ccccc1)NC(=O)[C@@H](NC(=O)OC(C)C)C(C)C)C(=O)C(=O)N[C@@H](C)C1CCCCC1	–	6.5	54.6	> 20	–	–	–	–
CCCC(NC(=O)C1CCCN1C(=O)[C@@H](NC(=O)OC(C)C)C(C)C)C(=O)C(=O)N[C@@H](C)c1ccccc1 (some centres not stated)	43.3	17.4	> 100	10.4	–	–	–	–
CCC[C@H](NC(=O)[C@H](Cc1ccccc1)NC(=O)[C@@H](NC(=O)OC(C)(C)C)C(C)C)C(=O)N[C@@H](C)c1ccccc1	–	7.4	> 100	> 20	–	–	–	–
CCC[C@H](NC(=O)[C@H](Cc1ccccc1)NC(=O)[C@@H](NC(=O)OC(C)C)C(C)C)C(=O)C(=O)NCc1ccccc1	–	4.6	> 100	5.3	–	2.7	–	–
CCC[C@H](NC(=O)[C@H](Cc1ccccc1)NC(=O)[C@@H](NC(=O)OC(C)(C)C)C(C)C)C(=O)NC[C@H](C)c1ccccc1	–	29.1	> 100	> 15	–	–	–	–
CCCC(NC(=O)C(Cc1ccc(F)cc1)NC(=O)[C@@H](NC(=O)OC(C)C)C(C)C)C(=O)C(=O)N[C@@H](C)c1ccccc1 (some centres not stated)	37.3	1.36	> 100	2.1	–	–	–	–
CCCC(NC(=O)[C@@H]1[C@H]2CC[C@H](F)[C@H]2CN1C(=O)[C@@H](NC(=O)OC(C)C)C(C)C)C(=O)C(=O)N[C@@H](C)c1ccccc1 (some centres not stated)	–	5.5	82	5.8	–	–	–	–
CCC[C@H](NC(=O)[C@H](Cc1ccccc1)NC(=O)[C@@H](NC(=O)OC(C)(C)C)C(C)C)C(=O)C(=O)N[C@H](C)c1ccccc1	–	0.71	30.3	1.3	–	–	–	–
CCCC(NC(=O)C1(NC(=O)[C@@H](NC(=O)OC(C)C)C(C)C)CCCC1)C(=O)C(=O)N[C@@H](C)c1ccccc1 (some centres not stated)	–	–	> 100	> 20	–	–	Not Active	Not Active
CCCC(NC(=O)[C@@H]1[C@H]2CCC[C@H]2CN1C(=O)[C@@H](NC(=O)OC(C)C)C(C)(C)C)C(=O)C(=O)N[C@@H](C)c1ccccc1 (some centres not stated)	25.7	–	57.8	7.7	–	–	–	–
CCCC(NC(=O)[C@@H]1[C@H]2CC[C@H](F)[C@H]2CN1C(=O)[C@@H](NC(=O)OC(C)C)C(C)(C)C)C(=O)C(=O)N[C@@H](C)c1ccccc1 (some centres not stated)	–	9.8	60.4	10	–	–	–	–
CCCC(NC(=O)[C@@H]1[C@H]2CCC[C@H]2CN1C(=O)[C@@H](NC(=O)OC(C)C)C(C)C)C(=O)C(=O)N[C@@H](C)c1ccccc1 (some centres not stated)	~10	3	65.4	2.2	–	–	–	–
